Assay results as given in the supplement of paper PMC10307832.

Experiments:
Assay in all cases: relative viability (nuclei count vs DMSO), 5 days (fraction); higher = more cells survive
[1] = compound: C=CC(=O)Nc1cc(-n2c(=O)ccc3cnc4ccc(-c5ccc(NS(C)(=O)=O)cc5)cc4c32)ccc1C [BMX-IN-1] + CS(=O)(=O)CCNCc1ccc(-c2ccc3ncnc(Nc4ccc(OCc5cccc(F)c5)c(Cl)c4)c3c2)o1 [Lapatinib] (partner 2 µM)
How it was run: (§1)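 Lung cancer cell lines in 1536-well plates were dosed by pin tool the day after seeding, either with one drug alone or with a fixed anchor-drug dose plus five library-drug doses (not always all listed) in √10 steps. After 5 days, cells were fixed and their nuclei stained in one step (final 0.05% Triton X-100, 1% formaldehyde, 1 ug/ml Hoechst), then counted on 4× images. Relative viability is the nuclei count in treated wells divided by that in vehicle wells. Values are medians of duplicate plates.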

[2] = compound: C=CC(=O)Nc1cc(-n2c(=O)ccc3cnc4ccc(-c5ccc(NS(C)(=O)=O)cc5)cc4c32)ccc1C [BMX-IN-1] + Cc1nc(NC(=O)N2CCC[C@H]2C(N)=O)sc1-c1ccnc(C(C)(C)C(F)(F)F)c1 [Alpelisib] (partner 2 µM)
How it was run: as §1

[3] = compound: C=CCc1cccc(/C=N/NC(=O)CN2CCN(Cc3ccccc3)CC2)c1O [PAC-1] + CC(=O)c1c(C)c2cnc(Nc3ccc(N4CCNCC4)cn3)nc2n(C2CCCC2)c1=O [Palbociclib] (partner 0.5 µM)
How it was run: as §1

[4] = compound: C=CCc1cccc(/C=N/NC(=O)CN2CCN(Cc3ccccc3)CC2)c1O [PAC-1] + C[C@]1(O)C[C@@H](c2nc(-c3ccc4ccc(-c5ccccc5)nc4c3)c3c(N)nccn32)C1 [Linsitinib] (partner 1 µM)
How it was run: as §1

[5] = compound: C=CCc1cccc(/C=N/NC(=O)CN2CCN(Cc3ccccc3)CC2)c1O [PAC-1] + CC1(C)CCC(c2ccc(Cl)cc2)=C(CN2CCN(c3ccc(C(=O)NS(=O)(=O)c4ccc(N[C@H](CCN5CCOCC5)CSc5ccccc5)c(S(=O)(=O)C(F)(F)F)c4)cc3)CC2)C1 [Navitoclax] (partner 0.5 µM)
How it was run: as §1

## SK-MES-1
[1]; first compound 0.02 µM
  relative viability: 0.473
[1]; first compound 0.2 µM
  relative viability: 0.466
[1]; first compound 0.6325 µM
  relative viability: 0.489
[1]; first compound 2 µM
  relative viability: 0.439
[2]; first compound 0.02 µM
  relative viability: 1.09
[2]; first compound 0.2 µM
  relative viability: 0.947
[2]; first compound 0.6325 µM
  relative viability: 0.911
[2]; first compound 2 µM
  relative viability: 0.88
[3]; first compound 0.02 µM
  relative viability: 0.336
[3]; first compound 0.06325 µM
  relative viability: 0.311
[3]; first compound 0.2 µM
  relative viability: 0.315
[3]; first compound 2 µM
  relative viability: 0.308
[4]; first compound 0.02 µM
  relative viability: 1.04
[4]; first compound 0.06325 µM
  relative viability: 1.03
[4]; first compound 0.2 µM
  relative viability: 1.04
[4]; first compound 2 µM
  relative viability: 1.03
[5]; first compound 0.02 µM
  relative viability: 1.09
[5]; first compound 0.06325 µM
  relative viability: 1.3
[5]; first compound 0.2 µM
  relative viability: 1.19
[5]; first compound 2 µM
  relative viability: 1.21
